Laboratory results from US6429188B1, “Method for treating the endotoxic shock in mammals” (Universidad Complutense de Madrid, priority 1998, dated 2002).

Key:
[1] = tested on: TNFα production in peritoneal murin macrophages stimulated with LPS; assay: Production of TNFα by peritoneal murine macrophages stimulated with LPS; type: cell-based, mouse; details: for Inhibitory effect on TNFα production when added after 4 hours: peptide added 4 hours after LPS; for Inhibitory effect on TNFα production when added up until 1 hour after LPS stimulation: peptide added up until 1 hour after LPS, compared with simultaneous addition; for IC50: peritoneal murin macrophages stimulated with LPS, read-out: IC50 for inhibition of TNFα production; for Highest degree of inhibition of TNFα production: peritoneal murin macrophages, LPS 1 to 10 ng/ml
Method: FIG. 1 represents the production of TNFα by murin macrophages in culture (5×10^5 […]) stimulated with 10 ngr/ml of LPS in presence or absence of 10^−8 M of VIP or PACAP over a period of 24 hours.
FIG. 2 represents the production of TNFα by murin macrophages in culture (5×10^5 cells/ml) after 6 hours of culture with 10 ngr/ml of LPS and to which 10^−8 M of VIP or PACAP is added at different times.
In experiments carried out in vitro VIP and PACAP inhibit the production of TNFα in peritoneal murin macrophages stimulated with LPS. The highest degree of inhibition reaches levels near to 60% and occurs with doses of stimulation between 1 and 10 ng/ml of LPS. The IC50 is around 80 pM, both for VIP and for PACAP and the effect was observed until the end of the experiment (see FIG. 1). The inhibitory effect is the same if both neuropeptides are added up until 1 hour after stimulating the macrophages with LPS, although it reduces progressively until disappearing if added after 4 hours (see FIG. 2).

circulating TNFα = assay: Levels of circulating TNFα in mice after injection of LPS; type: in vivo; details: 2 hours after 25 μgr LPS, simultaneous 5 nmol peptide
Method: In an experiment carried out with mice the levels of circulating TNFα 2 hours after injection of 25 μgr. of LPS approach 4 ngr./ml. Simultaneous administration of 5 nmol of VIP or PACAP reduced said levels by 60%.

[2] = tested on: IL-6 production in peritoneal murin macrophages stimulated with LPS; assay: Production of IL-6 by peritoneal murine macrophages stimulated with LPS; type: cell-based, mouse; details: for Degree of inhibition of IL-6 production when added after stimulation with LPS: peptide added at different times after LPS; for IC50: peritoneal murin macrophages stimulated with LPS, read-out: IC50 for inhibition of IL-6 production; for Highest degree of inhibition of IL-6 production: peritoneal murin macrophages, LPS 10 ngr./ml
Method: FIG. 3 represents the production of IL-6 by murin macrophages in culture (5×10^5 cells/ml) stimulated with 10 ngr/ml of LPS in presence or absence of 10^−8 M of VIP or PACAP over a period of 24 hours.
FIG. 4 represents the production of IL-6 by murin macrophages in culture (5×10^5 cells/ml) after 6 hours of culture with 10 ngr/ml of LPS and to which 10^−8 M of VIP or PACAP is added at different times.
In experiments carried out in vitro VIP and PACAP inhibit the production of IL-6 in peritoneal murin macrophages stimulated with LPS. The highest degree of inhibition reaches levels near to 90% and occurs with doses of stimulation of 10 ngr./ml of LPS.

circulating IL-6 = assay: Levels of circulating IL-6 in mice after injection of LPS; type: in vivo; details: 2 hours after 25 μgr LPS, simultaneous 5 nmol peptide
Method: In an experiment carried out with mice the levels of circulating IL-6 2 hours after injection of 25 μgr. of LPS approach 1.5 ngr./ml Simultaneous administration of 5 nmol of VIP or PACAP reduced said levels by 60% and 75% respectively.

mRNA of TNFα = assay: Northern blot for TNFα mRNA in LPS-activated macrophages; type: cell-based, Mouse; details: macrophages activated with LPS and exposed to peptide
Method: (§1) Mouse macrophages were submitted to the experimental conditions of examples 1 and 3 and their mRNA isolated. This was then analysed using the Northern Blot technique to detect mRNA of TNFα and IL-6.

mRNA of IL-6 = assay: Northern blot for IL-6 mRNA in LPS-activated macrophages; type: cell-based, Mouse; details: macrophages activated with LPS and exposed to peptide
Method: as §1

[3] = tested on: lethal effects of LPS in mice; assay: Survival of mice injected with a lethal dose of LPS; type: in vivo; details: 400 μgr LPS; for Survival rate, administration up to 1 hour after LPS: peptide up to 1 hour after LPS; for Survival rate at the end of the experiment: simultaneous 5 nmol peptide, 4-day period
Method: FIG. 6 represents the survival of mice injected with 400 μgr. of LPS and, either simultaneously or after 30 minutes, 1 or 4 hours, with 5 nmol. of VIP or PACAP. A. Control; B: VIP a 0 h.; C: VIP a 0.5 h; D: VIP a 1 h.; E: VIP a 4 h.;
An experiment was carried out in which the survival over a 4-day period was studied of mice that had been injected with 400 μgr. of LPS. The mortality in these circumstances was 100% after 36 hours. With simultaneous administration of 5 nmol. of VIP or PACAP a survival rate of 60% was attained at the end of the experiment. Administration of neuropeptides up to 1 hour after injection with LPS still gave survival rates near to 50%.

Question: “PACAP [two molecular forms PACAP-38 and PACAP-27]” was tested. Which “Inhibitory effect on TNFα production when added after 4 hours” value [1] did it give?
Answer: disappearing

Question: What about the “Inhibitory effect on TNFα production when added up until 1 hour after LPS stimulation” value [1] of the same substance?
Answer: the same

Question: What about the IC50 [1] of the same substance?
Answer: ~0.08 nM

Question: What about the “Highest degree of inhibition of TNFα production” value [1] of the same substance?
Answer: ~60%

Question: And the “Reduction of circulating TNFα levels” value (circulating TNFα)?
Answer: 60%

Question: And the “Degree of inhibition of IL-6 production when added after stimulation with LPS” value [2]?
Answer: progressively less

Question: What about the IC50 [2] of the same substance?
Answer: 0.0086 nM

Question: What about the “Highest degree of inhibition of IL-6 production” value [2] of the same substance?
Answer: ~90%

Question: And the “Reduction of circulating IL-6 levels” value (circulating IL-6)?
Answer: 75%

Question: What about the “Transcripts for TNFα (Northern blot)” value (mRNA of TNFα) of the same substance?
Answer: absence of transcripts

Question: What about the “Transcripts for IL-6 (Northern blot)” value (mRNA of IL-6) of the same substance?
Answer: absence of transcripts

Question: And the “Survival rate, administration up to 1 hour after LPS” value [3]?
Answer: ~50%

Question: What about the “Survival rate at the end of the experiment” value [3] of the same substance?
Answer: 60%

Question: Which “Inhibitory effect on TNFα production when added after 4 hours” value [1] does the source give for HSDAVFTDNYTRLRKMAVKKYLNSILN [VIP] here?
Answer: disappearing

Question: What about the “Inhibitory effect on TNFα production when added up until 1 hour after LPS stimulation” value [1] of the same substance?
Answer: the same

Question: And the IC50 [1]?
Answer: ~0.08 nM

Question: What about the “Highest degree of inhibition of TNFα production” value [1] of the same substance?
Answer: ~60%

Question: What about the “Reduction of circulating TNFα levels” value (circulating TNFα) of the same substance?
Answer: 60%

Question: What about the “Degree of inhibition of IL-6 production when added after stimulation with LPS” value [2] of the same substance?
Answer: progressively less

Question: And the IC50 [2]?
Answer: 0.0086 nM

Question: What about the “Highest degree of inhibition of IL-6 production” value [2] of the same substance?
Answer: ~90%

Question: And the “Reduction of circulating IL-6 levels” value (circulating IL-6)?
Answer: 60%

Question: And the “Transcripts for TNFα (Northern blot)” value (mRNA of TNFα)?
Answer: absence of transcripts

Question: And the “Transcripts for IL-6 (Northern blot)” value (mRNA of IL-6)?
Answer: absence of transcripts

Question: What about the “Survival rate, administration up to 1 hour after LPS” value [3] of the same substance?
Answer: ~50%

Question: And the “Survival rate at the end of the experiment” value [3]?
Answer: 60%
